Results reported in article PMC11017246, “Discovery of GLPG2737, a Potent Type 2 Corrector of CFTR for the Treatment of Cystic Fibrosis in Combination with a Potentiator and a Type 1 Co-corrector” (Journal of Medicinal Chemistry, 2024).
In brackets after ≈: the same amount, converted by molar mass. Like-named read-outs stand apart in the source and are kept apart here.

Experiments:
[1] = Liver microsomal stability, human; assay type: in vitro ADME; conditions: human; matrix not given; read-out: Clintr,unbound human (converted)
Method: (§1) The microsomal stability assay was performed by incubation of test compound at 1 μM, 0.2% DMSO in phosphate buffer with microsomes (0.5 mg/mL) from mouse, rat, dog, or human (Xeno-Tech, Kansas City, KS, USA), and cofactors with final concentrations of 0.6 U/mL glucose-6- phosphate dehydrogenase, 3.3 mM MgCl2, 3.3 mM glucose-6-phosphate, and 1.3 mM nicotinamide adenine dinucleotide phosphate (NADP)+. Before addition of the microsomes (time zero) and after 30 min of incubation at 37 °C with shaking, the reaction was stopped, and proteins were precipitated with an excess of acetonitrile containing an internal standard. The samples were mixed, centrifuged, and filtered, and the supernatant was analyzed by liquid chromatography–mass spectrometry/mass spectrometry (LC–MS/MS). The instrument responses (peak areas/IS peak areas) were referenced to the zero-time point samples (considered as 100%) to determine the percentage of compound remaining. In vitro unbound intrinsic clearance (CLint,u) was calculated from the half-life using the following equations: [drawing 1] [drawing 2] To take into account nonspecific binding, scaled CLint values were corrected with the fraction unbound in microsomes (fu, mic). [drawing 3]
Equilibrium dialysis is a technique used to measure microsomal binding. Briefly, the assay was performed in a 96-well Teflon dialysis unit (Dialysis Device), where each well consists of two chambers separated by a dialysis membrane (membrane strips, MW cutoff 12–14 kDa, HTDialysis). Inactivated liver microsomes (pooled human liver microsomes, Xenotech, protein concentration of 0.5 mg/mL) spiked with a compound (1 μM final concentration, 0.5% DMSO) were added to one chamber and buffer solution (50 mM PBS Buffer) was added to the other side of the well. Each compound was analyzed in duplicate for 4 h at 37 °C. At the end of incubation, both chambers were sampled and analyzed by LC-MS/MS. The unbound microsomal fraction (fu, mic) was calculated as the concentration in buffer divided by the total concentration in the microsomal side. Positive controls included in this assay are terfenadine and verapamil.

[2] = Liver microsomal stability, dog; assay type: in vitro ADME; conditions: matrix not given, read-out: Clintr,unbound dog
Method: as §1, with “The instrument responses (peak areas/IS peak areas) were referenced to the zero-time point samples (considered as 100%) to determine the percentage of compound remaining.” left out, “[drawing 2] To take into account nonspecific binding, scaled CLint values were corrected with the fraction unbound in microsomes (fu, mic). [drawing 3]” left out
(§2) Equilibrium dialysis is a technique used to measure microsomal binding. […] Each compound was analyzed in duplicate for 4 h at 37 °C. At the end of incubation, both chambers were sampled and analyzed by LC-MS/MS. The unbound microsomal fraction (fu, mic) was calculated as the concentration in buffer divided by the total concentration in the microsomal side. […]

[3] = Liver microsomal stability, monkey; assay type: in vitro ADME; conditions: matrix not given, read-out: Clintr,unbound monkey (converted)
Method: as §1, with “The instrument responses (peak areas/IS peak areas) were referenced to the zero-time point samples (considered as 100%) to determine the percentage of compound remaining.” left out, “[drawing 2] To take into account nonspecific binding, scaled CLint values were corrected with the fraction unbound in microsomes (fu, mic). [drawing 3]” left out
as §2

CYP1A2 = target: T1, CYP1A2 (Homo sapiens, UniProt P05177); assay: CYP reversible inhibition in HLM, CYP1A2; assay type: in vitro ADME; conditions: probe phenacetin
T1 construct: tissue BD Gentest; host or cells: human liver microsomes
T1 sequence (P05177 1-516): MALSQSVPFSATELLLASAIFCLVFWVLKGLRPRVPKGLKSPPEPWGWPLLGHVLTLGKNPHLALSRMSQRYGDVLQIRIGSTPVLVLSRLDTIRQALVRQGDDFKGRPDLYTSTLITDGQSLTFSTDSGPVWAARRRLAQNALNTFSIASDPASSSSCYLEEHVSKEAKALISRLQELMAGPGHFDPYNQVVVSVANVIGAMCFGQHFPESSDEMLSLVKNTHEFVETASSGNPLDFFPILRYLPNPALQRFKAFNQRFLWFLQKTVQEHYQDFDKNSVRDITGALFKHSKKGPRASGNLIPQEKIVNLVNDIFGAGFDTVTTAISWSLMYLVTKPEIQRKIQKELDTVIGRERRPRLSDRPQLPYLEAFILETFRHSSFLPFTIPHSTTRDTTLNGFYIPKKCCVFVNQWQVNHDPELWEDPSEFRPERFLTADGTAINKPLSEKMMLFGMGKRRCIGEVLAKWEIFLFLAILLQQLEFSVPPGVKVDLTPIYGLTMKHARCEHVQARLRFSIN
Method: (§3) Test compounds were diluted in methanol and then added to mixture containing 50 mM potassium phosphate buffer, pH 7.4, human liver microsomes (BD Gentest) and probe substrate. After prewarming for 5 min at 37 °C, the reaction was started by adding cofactor mix (7.65 mg/mL glucose-6-phosphate, 1.7 mg/mL NADP, 6 U/mL of glucose-6-phosphate dehydrogenase), resulting in seven final concentrations of test compounds in the range 0.14–100 μM (2% methanol). Isoform specific conditions regarding probe substrate and microsomal protein concentrations are available in Table 2. Final concentrations of cofactor mix components were as follows: 1.56 mg/mL glucose-6-phosphate, 0.34 mg/mL NADP, and 1.2 U/mL glucose-6-phosphate dehydrogenase. After incubation at 37 °C, the reaction was terminated with acetonitrile:methanol (2:1) solution with internal standard. Samples were centrifuged, and the supernatant fractions were analyzed by LC-MS/MS. The instrument responses (test compounds and internal standard peak areas) were referenced to those for solvent controls (assumed as 100%) in order to determine the percentage reduction in probe metabolism. Percent of control activity vs concentration plots were generated and fitted using GraphPad Prism software to generate IC50.

CYP2C19 = target: T2, CYP2C19 (Homo sapiens, UniProt P33261); assay: CYP reversible inhibition in HLM, CYP2C19; assay type: in vitro ADME; conditions: probe S-mephenytoin
T2 construct: tissue BD Gentest; host or cells: human liver microsomes
T2 sequence (P33261 whole entry): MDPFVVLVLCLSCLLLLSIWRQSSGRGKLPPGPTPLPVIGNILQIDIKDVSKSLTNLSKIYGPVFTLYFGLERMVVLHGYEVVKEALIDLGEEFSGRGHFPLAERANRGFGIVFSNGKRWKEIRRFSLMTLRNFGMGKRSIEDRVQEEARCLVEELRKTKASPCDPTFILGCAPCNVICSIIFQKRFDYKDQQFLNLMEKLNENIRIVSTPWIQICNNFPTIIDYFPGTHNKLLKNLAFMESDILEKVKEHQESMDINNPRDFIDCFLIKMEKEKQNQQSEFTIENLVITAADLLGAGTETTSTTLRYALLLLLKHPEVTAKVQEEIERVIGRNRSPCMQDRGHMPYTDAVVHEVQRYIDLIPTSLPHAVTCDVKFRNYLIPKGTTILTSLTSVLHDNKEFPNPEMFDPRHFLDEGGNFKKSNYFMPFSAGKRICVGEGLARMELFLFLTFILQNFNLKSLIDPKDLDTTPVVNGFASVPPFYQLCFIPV
Method: as §3

CYP2C9 = target: T3, CYP2C9 (Homo sapiens, UniProt P11712); assay: CYP reversible inhibition in HLM, CYP2C9; assay type: in vitro ADME; conditions: probe diclofenac; read-out: CYP inhibition in HLM IC50, CYP2C9
T3 construct: tissue BD Gentest; host or cells: human liver microsomes
T3 sequence (P11712 whole entry): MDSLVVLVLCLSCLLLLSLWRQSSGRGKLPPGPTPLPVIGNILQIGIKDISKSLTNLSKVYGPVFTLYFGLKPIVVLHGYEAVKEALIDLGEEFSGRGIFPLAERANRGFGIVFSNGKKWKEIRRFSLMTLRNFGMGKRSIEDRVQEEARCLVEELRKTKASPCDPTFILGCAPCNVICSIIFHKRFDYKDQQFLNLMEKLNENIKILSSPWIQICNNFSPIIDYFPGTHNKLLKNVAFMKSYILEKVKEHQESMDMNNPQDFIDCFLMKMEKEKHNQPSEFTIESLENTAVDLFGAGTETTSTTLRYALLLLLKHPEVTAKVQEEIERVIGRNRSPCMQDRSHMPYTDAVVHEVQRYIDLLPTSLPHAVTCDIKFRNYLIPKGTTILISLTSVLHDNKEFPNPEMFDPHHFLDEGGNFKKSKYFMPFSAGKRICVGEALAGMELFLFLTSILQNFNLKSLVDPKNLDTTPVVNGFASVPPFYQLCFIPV
Method: as §3

Thermodynamic solubility = assay type: physicochemical
Method: Dry matter of compound was dissolved at 1 mg/mL in buffers at different pH (Fasted simulated gastric fluid and pH 7.4) in glass vials. After 24 h of stirring at room temperature, a sample is taken, centrifuged for 10 min at 10,000 rpm, and filtered. The samples were diluted in duplicate in DMSO (F100 and F10). Then, a final dilution (F100) in 80/20 water/acetonitrile containing the internal standard was used for the LCMS-MS analysis.
A standard curve was made ranging from a 200,000–75 ng/mL stock in DMSO, freshly prepared from dry matter. The standard curve and quality controls were diluted in an F100 in 80/20 water/acetonitrile (with internal standard) and analyzed on LC/MS-MS. The peak areas of the standard curve are plotted in a graph, and a linear or polynomial of the second order equation is used to calculate the unknown concentrations of the test compound.

[4] = Measured pKa (potentiometric and UV methods); assay type: physicochemical; conditions: measured at Charles River
(h)H1 = target: T4, (h)H1 (Homo sapiens, UniProt P35367); assay: Radioligand binding, (h)H1 (Eurofins panel); conditions: read-out: IC50, inhibition of radioligand binding to (h)H1
T4 construct: purchased Eurofins
T4 sequence (P35367 whole entry): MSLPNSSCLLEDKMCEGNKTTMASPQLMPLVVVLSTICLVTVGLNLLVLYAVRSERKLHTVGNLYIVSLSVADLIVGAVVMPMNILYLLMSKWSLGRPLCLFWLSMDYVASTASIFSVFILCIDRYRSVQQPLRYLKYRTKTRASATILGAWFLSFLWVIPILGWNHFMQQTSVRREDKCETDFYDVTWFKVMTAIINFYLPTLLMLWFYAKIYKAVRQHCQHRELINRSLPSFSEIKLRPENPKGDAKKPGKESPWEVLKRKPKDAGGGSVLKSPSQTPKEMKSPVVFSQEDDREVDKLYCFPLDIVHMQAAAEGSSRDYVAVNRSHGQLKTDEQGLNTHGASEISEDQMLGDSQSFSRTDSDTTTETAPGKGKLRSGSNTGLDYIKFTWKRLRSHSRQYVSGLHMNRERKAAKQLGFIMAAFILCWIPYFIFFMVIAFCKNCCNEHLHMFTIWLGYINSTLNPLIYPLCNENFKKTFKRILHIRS

[5] = test system: patients with CF homozygous for ΔF508; parameters: method as in PMID 31594690; conditions: patients receiving ivacaftor/lumacaftor; cited from earlier work

CLint scaled at 1 μM [1]: 66.7 mL/min/kg | CLint scaled at 1 μM [2]: < 32 mL/min/kg | CLint scaled at 1 μM [3]: 347 mL/min/kg | IC50 (CYP1A2): > 100 µM | IC50 (CYP2C19): > 33 µM | IC50 (CYP2C9): 1.4 µM | solubility thermodynamic at 24 h (Thermodynamic solubility; buffer pH 7.4, pH 7.4, read-out: thermodynamic solubility pH 7.4): 9.9 µg/mL (≈ 16.1 µM) | solubility thermodynamic at 24 h (Thermodynamic solubility; fasted simulated gastric fluid, read-out: thermodynamic solubility FASSGF): 10.9 µg/mL (≈ 17.8 µM) | pKa ([4]; UV method, read-out: measured acylsulfonamyl pKa): 4.74 | pKa ([4]; UV method, read-out: measured piperidine pKa): 8.51 | pKa ([4]; potentiometric method, read-out: measured acylsulfonamyl pKa): 4.96 | pKa ([4]; potentiometric method, read-out: measured piperidine pKa): 8.42 | IC50 ((h)H1): 8 µM
Compound: COC1CCN(C2CCN(c3cc(C(=O)NS(=O)(=O)N(C)C)nc4c3c(C3CCC3)nn4-c3ccc(F)cc3)CC2)CC1 [Compound 52, 3-Cyclobutyl-N-(N,N-dimethylsulfamoyl)-1-(4-fluorophenyl)-4-(4-methoxy-[1,4′-bipiperidin]-1′-yl)-1H-pyrazolo[3,4-b]pyridine-6-carboxamide]
mutagenicity (Ames II test): not mutagenic | efficacy versus placebo [5]: improved efficacy versus placebo | tolerability [5]: well tolerated
